Reference: patent publication US20210254087A1, “METHODS FOR ENHANCING GENOME ENGINEERING EFFICIENCY” (KWS SAAT SE & CO. KGaA, priority 2018, published 2021)

Legend:
Type in all cases: cell-based
leaves of corn plants = experiment: Co-delivery of 2,4-D with tdTomato construct pGEP359 by microprojectile bombardment, transient transformation; conditions: 250 ng 2,4-D, 20 hours after bombardment, vs without 2,4-D
Method: Corn plants have grown in greenhouse. In stage V8 microprojectile bombardment was conducted using a Bio-Rad PDS-1000/He particle gun. The bombardment conditions are: 27-28 mm/Hg vacuum, 450 or 650 psi rupture disc, 6 mm gap distance. 20 hours after bombardment, transient transformation was examined using a fluorescence microscope for the tdTomato gene expression at excitation maximum 554 nm and emission maximum 581 nm. Plasmid DNA and 2,4-D co-coating onto gold particles for bombardment were conducted as described in Example 1. 2,4-D stock solution (e.g. 25 mg/ml in DMSO).

[1] = test system: corn Hi II type II callus; experiment: Co-delivery of 2,4-D with mNeonGreen construct pGEP362 by microprojectile bombardment, transient transformation; conditions: 125 ng, 250 ng, 500 ng 2,4-D vs 0 ng; 16 hours after bombardment
Method: Type II callus culture and microprojectile bombardment and post-bombardment handlings were performed using the same procedure as described in Example 2.
The amounts of 2,4-D used for a bombardment with 100 μg of gold particles (approximately, 4.0-5.0×10^7 0.6 μm gold particles) are in range of 1.0 ng to 1000 ng, preferred 10 ng to 500 ng. Plasmid DNA and 2,4-D co-coating onto gold particles for bombardment were conducted as described in Example 6.

[2] = test system: corn Hi II immature embryos; experiment: as above; conditions: 250 ng 2,4-D, 100 μg gold particles, 16 hours after bombardment, vs no 2,4-D
Method: Embryo isolation and microprojectile bombardment and post-bombardment handlings were performed using the same procedure as described in Example 1.
The amounts of 2,4-D used for a bombardment with 100 μg of gold particles (approximately, 4.0-5.0×10^7 0.6 μm gold particles) are in range of 1.0 ng to 1000 ng, preferred 10 ng to 500 ng. Plasmid DNA and 2,4-D co-coating onto gold particles for bombardment were conducted as described in Example 1. 2,4-D stock solution (e.g. 1 mg/ml) is prepared in 100% DMSO.

[3] = test system: corn Hi II type II calluses; experiment: Co-delivery of 6-BA or zeatin with tdTomato construct pGEP359 by microprojectile bombardment, transient transformation; conditions: 250 ng hormone, 100 μg gold particles, 16 hours after bombardment, vs no hormone
Method: The amounts of 6-BA or zeatin used for a bombardment with 100 μg of gold particles (approximately, 4.0-5.0×10^7 0.6 μm gold particles) are in range of 1.0 ng to 10000 ng, preferred 10 ng to 1000 ng.

[4] = test system: corn Hi II immature embryos; experiment: Co-delivery of TSA with tdTomato construct pLH-Pat5077399-70Subi-tDt by microprojectile bombardment, transient transformation
Method: Procedure: Prepare corn immature embryo for bombardment: 8-10 days post pollination, maize ears (i.e. A188 or Hi II) with immature embryos size 0.8 to 1.8 mm were harvested. The ears were sterilized with 70% ethanol for 10-15 minutes. After a brief air-dry in a laminar hood, remove top ˜⅓ of the kernels from the ears with a shark scalpel, and pull the immature embryos out of the kernels carefully with a spatula. The fresh isolated embryos were placed onto the bombardment target area in an osmotic medium plate (see below) with scutellum-side up. Wrap the plates with parafilm and incubated them at 25° C. in dark for 4-20 hours before bombardment.
The amounts of TSA used for a bombardment with 100 μg of gold particles (approximately, 4.0-5.0×10^7 0.6 micron gold particles) are in range of 0.01 ng to 500 ng, preferred 0.1 to 50 ng. Plasmid DNA and TSA co-coating onto gold particles for bombardment: For 10 shots, 1 mg of gold particle size 0.6 micron (μm) in 50% (v/v) glycerol (100 μg gold particles per shot) in a total volume of 100 microliter (μl) was pipetted into a clear low-retention microcentrifuge tube. Sonicate for 15 seconds to suspend the gold particles. While vortex at a low speed, add the following in order to each 100 μl of gold particles: • Up to 10 μl of DNA (1.0 μg total DNA, 100 ng per shot) • 100 μl of 2.5 M CaCl2) (pre-cold on ice) • 40 μl of 0.1 M cold spermidine
Close the lid and vortex the tube for 2-30 minutes at 0-10° C., and spin down the DNA-coated gold particles. After washing in 500 μl of 100% ethanol for two times, the pellet was resuspended in 120 μl of 100% ethanol. […]
Bombardment was conducted using a Bio-Rad PDS-1000/He particle gun. […] 16-48 hours after bombardment, transient transformation was examined using a fluorescence microscope for the tdTomato gene expression at excitation maximum 554 nm and emission maximum 581 nm. […]

[5] = test system: corn Hi II type II calluses; experiment: Co-delivery of TSA with tdTomato construct pGEP359 by microprojectile bombardment, transient transformation; conditions: 15 ng TSA, 100 μg gold particles, 16 hours after bombardment, vs no TSA
Method: Type II callus induction and selection: Hi II immature embryos size 0.8-1.8 mm were isolated as described in Example 1, and were placed onto type II callus induction medium (see below) immediately with scutellum-side up, in a density of 10-15 embryo per plate (diameter of 100 mm). Wrap the plates with parafilm, and culture the embryos in plate at 27° C. in the dark until type II callus emerged (˜2 weeks). Pick friable type II calluses under a stereoscope, and move them onto type II callus selection medium (see below). Repeat this process for 2-3 more times, and trash the embryos 4 weeks after induction. Select pre-embryo stage of type II callus under a stereoscope carefully based on: friability (highly friable), morphology (no embryo-like structure), color (fresh, white, semi-transparent). Select and subculture type II callus every 1-2 week in callus selection medium (see below) until the callus lines stabilized (about 3-5 rounds of selection). Stable type II callus lines were cultured in type II callus subculture medium (see below) every 1 to 2 weeks.
Preparation of type II callus for bombardment: Select and transfer highly friable type II callus at pre-embryo stage onto the bombardment target region in an osmotic medium plate (see Example 1) (single layer, no overlapping). […]

[6] = test system: corn Hi II immature embryos; experiment: Co-delivery of TSA with gene editing construct pGEP284, site-specific InDel rate by NGS
Method: Embryo isolation, microprojectile bombardment and post-bombardment handlings were performed using the same procedure as described in Example 1. Two days after bombardment, the embryos were harvested and used for genomic DNA isolation use Plant DNA Isolation kit from Qiagen (Venlo, Netherlands). NGS (next generation sequencing) was conducted by Miseq platform of Illumina Inc. (San Diego, Calif., USA). InDel (insertion and deletion) rate was analyzed by means of CRISPResso (http://crispresso.rocks/).

[7] = test system: corn Hi II type II calluses; experiment: Co-delivery of TSA with gene editing constructs pGEP359 and pGEP353, site-specific InDel rate by NGS; conditions: 15 ng TSA vs no TSA, 13 days after co-bombardment
Method: Type II callus culture and microprojectile bombardment and post-bombardment handlings were performed using the same procedure as described in Example 2. 2-15 days after bombardment, the calluses were harvested and used for genomic DNA isolation with a Plant DNA Isolation kit from Qiagen. NGS (next generation sequencing) was conducted by Illumina Miseq platform. InDel (insertion and deletion) rate was analyzed by means of CRISPResso.

[8] = test system: sugar beet friable calluses; experiment: Co-delivery of TSA with pLH-Pat5077399-70Subi-tDt by microprojectile bombardment, transient transformation; conditions: 15 ng TSA, 300 μg gold particles, 24 hours after bombardment, vs no TSA
Method: Sugar beet callus induction: young leaves from in vitro cultured sugar beet shoots in shoot culture medium (see below) were cut into small pieces (square, size 3-5 mm) in a laminar hood, and placed them onto callus induction medium (see below), in a density of 10-15 pieces per plate (diameter of 100 mm) with adaxial-side up. Wrap the plates with parafilm, and culture the leaf segments in plate at 23° C. in the dark for 6-8 weeks until callus emerged.
Preparation of sugar beet callus for bombardment: harvest friable fresh calluses under a stereoscope, and transfer them onto the bombardment target area in a sugar beet osmatic medium (see below) (single layer, no overlapping). Wrap the plates with parafilm and incubated at 25° C. in dark for 4-20 hours before bombardment.
Microprojectile bombardment and post-bombardment handlings were conducted using the same procedure descripted in Example 1, except for the amount of gold particles used for a bombardment was 300 μg.
Sugar beet shoot culture medium: MS, 0.25 mg/L of BAP, 30 g/L of sucrose, 8 g/I plant agar, pH 6.0
Sugar beet callus induction medium: MS, 2.0 mg/L of BAP, 15 g/L of sucrose, 8 g/I plant agar, pH 6.0
Sugar beet callus osmatic medium: MS, 2.0 mg/L of BAP, 15 g/L of sucrose, 0.2 M Mannitol (36.4 g/L), 0.2 M sorbitol (36.4 g/L), 8 g/I plant agar, pH 6.0

Structure (SMILES): O=C(O)COc1ccc(Cl)cc1Cl [2,4-D, 2,4-Dichlorophenoxyacetic acid]
- effect on transient transformation in corn leaves (leaves of corn plants): improved the transient transformation
- increase of average number of green fluorescent cells per field [1]: at least 34.8%
- increase in average number of green fluorescent cells per embryo [2]: 187%

Structure (SMILES): c1ccc(CNc2ncnc3nc[nH]c23)cc1 [6-BA, 6-Benzylaminopurine]
- increase in average number of red fluorescent cells per field [3]: 35.8%

Structure (SMILES): CC(/C=C/C(=O)NO)=C\[C@@H](C)C(=O)c1ccc(N(C)C)cc1 [TSA, trichostatin A]
- increase of average number of red fluorescent cells (positively transient transformed cells) per embryo ([4]; 15 ng TSA, 100 μg gold particles 0.6 μm, 16 hours after bombardment, vs no TSA): 98.2%
- effect of lower and higher TSA amounts on transient transformed cells ([4]; 15 ng and 45 ng TSA vs no TSA, 16 hours): significant increase of transient transformed cells
- TSA amount giving optimum of average number of fluorescent cells per field ([4]; no TSA, 15, 30, 45 ng TSA tested, 16 hours): around 30 ng
- increase of average number of fluorescent cells per field [5]: 43.3%
- effect of lower and higher TSA amounts on InDel rates ([6]; 15 ng and 45 ng TSA compared to absence of TSA, 2 days): significant increase of InDel rates
- TSA amount giving optimum of rates of InDel events ([6]; no TSA, 15, 30, 45 ng TSA tested, 2 days after bombardment, pGEP284): around 30 ng
- increase of site-specific InDel rate, factor [7]: 6.75
- increase of site-specific InDel rate, percent [7]: 575%
- increase of average number of fluorescent cells per field [8]: 193.7%

Structure (SMILES): C/C(=C\CNc1ncnc2[nH]cnc12)CO [zeatin, Zeatin]
- increase in average number of red fluorescent cells per field [3]: 31.2%
